Data taken from patent US9056923B2, “Mimetic peptides derived from collagen type IV and their use for treating angiogenesis- and lymphagiogenesis-dependent diseases” (THE JOHNS HOPKINS UNIVERSITY, priority 2010, dated 2015).
“Also recorded” adds a separate entry of the source. Read-outs that look alike come from different tables or passages of the source. Ends that are not written are not given here.

Assays:
[1] = system: MDA-MB-231 tumors; experiment: MRI of tumor vascular volume and permeability surface-area product; format: in vivo, mice; conditions: vs control
Protocol: MRI of vascular volume and permeability surface-area product (PSP) were determined as follows. Mice with volume-matched tumors were treated with SP2024 or vehicle and imaged 24 h post treatment. The mice were anesthetized and the tail vein was catheterized before placing the animal in the spectrometer. All imaging studies were performed on a 4.7 T Bruker Avance spectrometer, as previously described (Raman et al., 2006; Bhujwalla et al., 2001) using a home-built solenoid coil placed around the tumor. Briefly, multislice relaxation rate (1/T1) maps were obtained by a saturation recovery method combined with fast T1 SNAPSHOT-FLASH imaging (flip angle of 10°, echo time of 2 ms). […] The detectable areas of vascular volume and permeability as well as absolute values of vascular volume and permeability were analyzed. […] Volume fractions of the regions were determined using the histogram analysis of the volume data. […] Statistical significance (p<0.05) within each experiment using the independent replicates was assessed using standard statistical assessments such as Student's t-test and ANOVA accompanied by Dunnett's test if different sets of data were compared to one group.

[2] = system: HUVEC; format: cell-based, human
Summary of the method: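 HUVEC plated at 2000 cells/well overnight, then exposed to peptides in fully supplemented medium for three days. WST-1 added in serum-free EBM-2 for four hours and absorbance read at 450 nm. Percent live cells taken relative to untreated cells in complete medium with 0.2% DMSO.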

[3] = system: MDA-MB-231 xenograft; experiment: MDA-MB-231 orthotopic breast tumor xenograft; format: in vivo, SCID mice
Protocol: For primary tumor inhibition studies, 1−2×10^6 tumor cells were injected into 4-6 wk old female SCID mice. After the tumors reached a size of 100 mm^3 the animals were randomized into groups of 10 animals each. The animals were treated with vehicle, SP2012, SP2000, or SP2024. The peptides were administered subcutaneously daily. Dosing was continued for 3 or 4 weeks and tumor sizes were measured every 3 days using calipers. The tumor volume was estimated using the formula V=a^2b/2 where a and b are the smaller and larger diameters.
For the tumor xenograft assay, animals were housed and treated according to the approved animal protocol of the Institutional Care and Use Committee at Johns Hopkins Medical Institution (JHMI). Orthotopic breast tumors were initiated in SCID mice using MDA-MB-231 cells. 2×10^6 cells per 100 μL aliquot of single cell suspension were injected in the breast mannary fat pad. Tumors reached volumes of 75 mm^3 to 100 mm^3 in approximately 14-21 days. Mice were randomized and arranged in groups (8 mice per group) with similar tumor volumes (no statistical difference among averages) and treatment was commenced. Peptides were administered once per day intraperitoneally (i.p.) at doses of 10 mg/kg (subcutaneous delivery was also tested with certain peptides). Paclitaxel was administered at 5 mg/kg once a week, and to maintain the daily treatment regime PBS was administered on the non-treatment days. Tumors were measured every fourth day using calipers and the tumor volume was calculated using the formula V=ab^2/2, where a is the larger diameter and b is the smaller diameter.

[4] = system: lymphatic endothelial cells (LEC); experiment: LEC adhesion assay; format: cell-based
Protocol: Similar to the migration assays, the inhibition activity of the peptide in cellular adhesion was assessed using the RT-CIM technology. In this case, 25,000 cells/well were plated in 16 wells E-plates (Roche, Basel Switzerland) in the presence or absence of the peptide. The adhesion was monitored over time (3 hours) by measuring changes in the electrical impedance, which is a direct measure of the cells adhering on the electrodes. […] Assays were performed in at least two independent replicates and each replicate was performed using two experimental duplicates.

[5] = system: MDA-MB-231 breast cancer cells; experiment: MDA-MB-231 wound healing type migration assay (Oris Pro); format: cell-based
Protocol: Breast cancer cells MDA-MB-231 are not suitable for the RT-CIM type experiments due to their thin elongated phenotype, thus the inhibition of migration was investigated using a wound healing type assay. This assay was performed using the Oris Pro Migration assay (Platypus Technologies, CMA 1.101). Briefly, 20,000-25,000 cells/well in full media were added to the 96 well plate containing stoppers to block migration of cells to the center region of the wells. Cells were allowed to adhere for 4 hours, after which the stoppers were removed. Cells were washed one time with PBS and fully supplemented media, with or without compound, was added to the wells. […], cells were stained with calcein AM (0.5 μg/mL) (Invitrogen, CA) and the cells that migrated to the center of the well were quantified by fluorescence intensity measured using a Victor V plate reader (Perkin Elmer) and also imaged using a Leica or Nikon microscope.

What does the source list for LRRFSTMPFMFININNVINF-NH2 [SP2024]?
relative vascular volume [1]: reduced relative vascular volume; tumor permeability-surface area product [1]: reduced tumor permeability-surface area product; IC50 [2]: 1.29 µM; Activity in Proliferation ([2]; HUVEC, Yes/No summary): Yes; IC50 ([2]; HUVEC, tables 5, 8-10 and text, read-out: IC50 ± 95% CI (μM), proliferation): 7.45 ± 5.7 µM; suppression of tumor growth ([3]; MDA-MB-231 xenograft in mice, 10 mg/kg daily): inhibited tumor growth significantly over the control; MDA-MB-231 xenograft inhibition ([3]; mice): Active; inhibition of adhesion of LEC [4]: strong; inhibition of migration of MDA-MB-231 cells [5]: strong; also recorded: inhibition of cell migration
